Source: article PMC2724842 (Biochemistry, 2009)
Entries after “also recorded” stand apart in the source; their conditions may differ. Marks after values point to notes of the source that are not given here.

Legend:
Y410F IPMS [1] = biological target: T1, Y410F IPMS (Mycobacterium tuberculosis, UniProt P9WQB3, Y410F); format: biochemical; settings: for Km: read-out: K1 (Km)
H379A IPMS [2] = biological target: T2, H379A IPMS (Mycobacterium tuberculosis, UniProt P9WQB3, H379A); format: biochemical
Y169F IPMS = Y169F IPMS (Mycobacterium tuberculosis, UniProt P9WQB3, Y169F); format: biochemical; settings: for Km: read-out: K1 (Km)
E218A IPMS [3] = biological target: T3, E218A IPMS (Mycobacterium tuberculosis, UniProt P9WQB3, E218A); format: biochemical
E218A IPMS [4] = biological target: T3, E218A IPMS; format: biochemical; remark: listed apart in the source
Y410F IPMS [5] = biological target: T1, Y410F IPMS; format: biochemical
Y410F IPMS [6] = biological target: T1, Y410F IPMS; format: binding
Y169F MtIPMS = Y169F MtIPMS (Mycobacterium tuberculosis, UniProt P9WQB3, Y169F); format: biochemical
E218A IPMS [7] = biological target: T3, E218A IPMS; format: binding
H379A IPMS [8] = biological target: T2, H379A IPMS; format: biochemical; remark: listed apart in the source

In the case of `CC(=O)SCCNC(=O)CCNC(=O)[C@H](O)C(C)(C)COP(=O)(O)OP(=O)(O)OC[C@H]1O[C@@H](n2cnc3c(N)ncnc32)[C@H](O)[C@@H]1OP(=O)(O)O` [Acetyl-CoA, acetyl-coenzyme A], the “kcat1 (kcat)” value (Y410F IPMS [1]) is reported as 0.0933 ± 0.0033 s⁻¹, the Km (Y410F IPMS [1]) is reported as 1.1 ± 0.2 µM and the “kcat1 (kcat)” value (H379A IPMS [2]) is reported as 2.55 ± 0.033 s⁻¹. For the same molecule, the Km (H379A IPMS [2]; read-out: K1 (Km)) was 23 ± 1.5 µM, the “kcat1 (kcat)” value (Y169F IPMS) was 5.67 ± 0.217 s⁻¹ and the Km (Y169F IPMS) was 40 ± 6 µM. The K1 (E218A IPMS [3]) was 9.5 ± 1.1 µM, the K2 (E218A IPMS [3]) was 697 ± 615 µM and the kcat1 (E218A IPMS [3]) was 0.0583 ± 0.0033 s⁻¹. It also gave a kcat2 (E218A IPMS [3]) of 0.0933 ± 0.0467 s⁻¹.

`CC(C)C(=O)C(=O)O` [α-KIV, α-ketoisovalerate] was tested, and the “kcat1 (kcat)” value (Y410F IPMS [1]) was 0.075 ± 0.0033 s⁻¹, the Km (Y410F IPMS [1]) was 0.5 ± 0.1 µM and the K1 (H379A IPMS [2]) was 1.6 ± 1.1 µM. It also gave a K2 (H379A IPMS [2]) of 19 ± 6 µM, a kcat1 (H379A IPMS [2]) of 0.7 ± 0.3 s⁻¹ and a kcat2 (H379A IPMS [2]) of 1.48 ± 0.283 s⁻¹. For the same molecule, the “kcat1 (kcat)” value (Y169F IPMS) was 4.75 ± 0.267 s⁻¹, the Km (Y169F IPMS) was 13.4 ± 2.6 µM and the K1 (E218A IPMS [3]) was 1.6 ± 0.2 µM. For the same molecule, the K2 (E218A IPMS [3]) was 39 ± 11 µM, the kcat1 (E218A IPMS [3]) was 0.0367 ± 0.0017 s⁻¹ and the kcat2 (E218A IPMS [3]) was 0.0217 ± 0.0017 s⁻¹.

`CC(C)C[C@H](N)C(=O)O` [L-leucine] was tested, and the “activity retained, vss data” value (E218A IPMS [4]) was 16%, the “β, limiting value for vi” value (E218A IPMS [4]) was 0.61/0.16 ^c and the “sensitivity to L-leucine inhibition” value (Y410F IPMS [5]) was “insensitive”. For the same molecule, the “N (stoichiometry for binding)” value (Y410F IPMS [6]) was 0.91 ± 0.01, the ΔH (Y410F IPMS [6]) was 2.598 ± 0.048 kcal/mol and the ΔS (Y410F IPMS [6]) was 30.1 cal/mol/K. The “inhibition at saturating L-leucine” value (Y169F MtIPMS) was “fully inhibited; also recorded: completely inhibited”, the “N (stoichiometry for binding)” value (E218A IPMS [7]) was 0.97 ± 0.01 and the ΔH (E218A IPMS [7]) was 1.486 ± 0.031 kcal/mol. The ΔS (E218A IPMS [7]) was 28.5 cal/mol/K, the “activity retained at saturating L-leucine” value (H379A IPMS [8]) was 24% and the “β (fractional activity at saturating inhibitor)” value (H379A IPMS [8]) was 0.24.
